Measurements published in patent US8735414B2 (priority 2009, dated 2014).

Experiments:
[1] = test system: bicistronic HCV replicon (replicon RNA, GenBank Accession No. AJ242654); experiment: HCV Replicon Assay; assay type: cell-based; settings: Hepatitis C virus, 72 h, read-out: Replicon IC50

Structure (SMILES) | melting point [°C] | IC50 [1] [nM]
Cc1c(F)cc2c(C#N)c(-c3ccc(S(=O)(=O)NC(CF)CF)cn3)n(C3CCC3)c2c1F [compound 533, 6-(3-cyano-1-cyclobutyl-5,7-difluoro-6-methyl-1H-indol-2-yl)-N-(1,3-difluoropropan-2-yl)pyridine-3-sulfonamide] | 158 to 170 | < 500
N#Cc1c(-c2ccc(S(=O)(=O)NC(CF)CF)cn2)n(C2CCCC2)c2ccc(F)cc12 [compound 38, 6-(3-cyano-1-cyclopentyl-5-fluoro-1H-indol-2-yl)-N-(1,3-difluoropropan-2-yl)pyridine-3-sulfonamide] | 171 to 172 | < 500
C[C@H](NS(=O)(=O)c1ccc(-c2c(C#N)c3cc(F)ccc3n2C2CCC2)nc1)C1CC1 [compound 142, 6-(3-cyano-1-cyclobutyl-5-fluoro-1H-indol-2-yl)-N-[(1S)-1-cyclopropylethyl]pyridine-3-sulfonamide] | 128 to 130 | < 500
CCc1cc2c(cc1F)c(C(N)=O)c(-c1ccc(S(=O)(=O)N[C@@H](C)C(F)(F)F)cn1)n2-c1ncc(C)cn1 [compound 1047, 6-ethyl-5-fluoro-1-(5-methylpyrimidin-2-yl)-2-(5-{[(2S)-1,1,1-trifluoropropan-2-yl]sulfamoyl}pyridin-2-yl)-1H-indole-3-carboxamide] | 257 to 261 | 500 to 2000
CC(C)Oc1ccc2c(C#N)c(-c3ccc(NS(=O)(=O)C4CC4)nn3)n(C3CCC3)c2c1 [compound 274, N-{6-[3-cyano-1-cyclobutyl-6-(propan-2-yloxy)-1H-indol-2-yl]pyridazin-3-yl}cyclopropanesulfonamide] | 175 to 177 | 2000 to 5000
C[C@H](NS(=O)(=O)c1ccc(-c2c(C#N)c3cc(F)c(OC(F)F)cc3n2C2CCCC2)nc1)C(F)(F)F [compound 574, 6-[3-cyano-1-cyclopentyl-6-(difluoromethoxy)-5-fluoro-1H-indol-2-yl]-N-[(2S)-1,1,1-trifluoropropan-2-yl]pyridine-3-sulfonamide] | 181 to 184 | < 500
Cc1ccc2c(C#N)c(-c3ncc(S(=O)(=O)N[C@@H](C)C(F)(F)F)cn3)n(-c3ccccn3)c2c1 [compound 475, 2-[3-cyano-6-methyl-1-(pyridin-2-yl)-1H-indol-2-yl]-N-[(2S)-1,1,1-trifluoropropan-2-yl]pyrimidine-5-sulfonamide] | 210 to 212 | < 500
Cc1cc2c(cc1F)c(C#N)c(-c1ncc(S(=O)(=O)N[C@@H](C)C(F)(F)F)cc1C)n2-c1ccccn1 [compound 889, 6-[3-cyano-5-fluoro-6-methyl-1-(pyridin-2-yl)-1H-indol-2-yl]-5-methyl-N-[(2S)-1,1,1-trifluoropropan-2-yl]pyridine-3-sulfonamide] | 197 to 202 | < 500
CC(C)NS(=O)(=O)c1ccc(-c2c(C#N)c3ccc(OC(F)(F)F)cc3n2C(C)C)nc1 [compound 12, 6-[3-cyano-1-(propan-2-yl)-6-(trifluoromethoxy)-1H-indol-2-yl]-N-(propan-2-yl)pyridine-3-sulfonamide] | 160 to 162 | 500 to 2000
C[C@H](NS(=O)(=O)c1ccc(-c2c(C#N)c3ccc(OC(F)(F)F)cc3n2C2CCCC2)nc1)C(F)(F)F [compound 358, 6-[3-cyano-1-cyclopentyl-6-(trifluoromethoxy)-1H-indol-2-yl]-N-[(2S)-1,1,1-trifluoropropan-2-yl]pyridine-3-sulfonamide] | 168 to 170 | < 500
N#Cc1ccc2c(C#N)c(-c3ccc(S(=O)(=O)NC(CF)CF)cn3)n(C3CCCC3)c2c1 [compound 468, 6-(3,6-dicyano-1-cyclopentyl-1H-indol-2-yl)-N-(1,3-difluoropropan-2-yl)pyridine-3-sulfonamide] | 219 to 221 | < 500
Cc1cc2c(cc1F)c(C(N)=O)c(-c1ccc(S(=O)(=O)N[C@@H](C)C(F)(F)F)cn1)n2-c1cccnn1 [compound 912, 5-fluoro-6-methyl-1-(pyridazin-3-yl)-2-(5-{[(2S)-1,1,1-trifluoropropan-2-yl]sulfamoyl}pyridin-2-yl)-1H-indole-3-carboxamide] | 176 to 181 | 2000 to 5000
C[C@H](NS(=O)(=O)c1ccc(-c2c(C#N)c3ccc(CC(F)F)cc3n2C2CCC2)nc1)C(F)(F)F [compound 384, 6-[3-cyano-1-cyclobutyl-6-(2,2-difluoroethyl)-1H-indol-2-yl]-N-[(2S)-1,1,1-trifluoropropan-2-yl]pyridine-3-sulfonamide] | 172 to 174 | < 500
C[C@@H](NS(=O)(=O)c1ccc(-c2c(C#N)c3ccc(Cl)cc3n2C2CCC2)nc1)C(F)(F)F [compound 222, 6-(6-chloro-3-cyano-1-cyclobutyl-1H-indol-2-yl)-N-[(2R)-1,1,1-trifluoropropan-2-yl]pyridine-3-sulfonamide] | 202 to 206 | < 500
CC(C)n1c(-c2ncc(S(=O)(=O)NC(CF)CF)cn2)c(C#N)c2ccc(F)cc21 [compound 165, 2-[3-cyano-6-fluoro-1-(propan-2-yl)-1H-indol-2-yl]-N-(1,3-difluoropropan-2-yl)pyrimidine-5-sulfonamide] | 149 to 150 | 500 to 2000
C[C@H](NS(=O)(=O)c1cnc(-c2c(C#N)c3cc(F)ccc3n2CC2CC2)nc1)C1CC1 [compound 531, 2-[3-cyano-1-(cyclopropylmethyl)-5-fluoro-1H-indol-2-yl]-N-[(1S)-1-cyclopropylethyl]pyrimidine-5-sulfonamide] | 184 to 188 | < 500
N#Cc1c(-c2ncc(S(=O)(=O)NC(CF)CF)cn2)n(C2CCC2)c2cc(N3CCOCC3)ccc12 [compound 321, 2-[3-cyano-1-cyclobutyl-6-(morpholin-4-yl)-1H-indol-2-yl]-N-(1,3-difluoropropan-2-yl)pyrimidine-5-sulfonamide] | 223 to 225 | 500 to 2000
C[C@@H](NS(=O)(=O)c1ccc(-c2c(C#N)c3cc(F)c(OC(F)F)cc3n2C2CCCC2)nc1)C(F)(F)F [compound 713, 6-[3-cyano-1-cyclopentyl-6-(difluoromethoxy)-5-fluoro-1H-indol-2-yl]-N-[(2R)-1,1,1-trifluoropropan-2-yl]pyridine-3-sulfonamide] | 197 to 200 | < 500
Cc1ccc2c(C#N)c(-c3ncc(S(=O)(=O)NC(CF)CF)cn3)n(C3CCC3)c2c1 [compound 132, 2-(3-cyano-1-cyclobutyl-6-methyl-1H-indol-2-yl)-N-(1,3-difluoropropan-2-yl)pyrimidine-5-sulfonamide] | 236 to 238 | < 500
CC(C)n1c(-c2ncc(S(=O)(=O)N[C@@H](C)C(F)(F)F)cn2)c(C#N)c2ccc(OC(F)F)cc21 [compound 399, 2-[3-cyano-6-(difluoromethoxy)-1-(propan-2-yl)-1H-indol-2-yl]-N-[(2S)-1,1,1-trifluoropropan-2-yl]pyrimidine-5-sulfonamide] | 219 to 221 | < 500
C[C@H](NS(=O)(=O)c1cnc(-c2c(C#N)c3ccc(OC(F)F)cc3n2CC2CC2)nc1)C(F)(F)F [compound 398, 2-[3-cyano-1-(cyclopropylmethyl)-6-(difluoromethoxy)-1H-indol-2-yl]-N-[(2S)-1,1,1-trifluoropropan-2-yl]pyrimidine-5-sulfonamide] | 211 to 212 | < 500
Cc1cc2c(cc1F)c(C#N)c(-c1ccc(S(=O)(=O)N[C@@H](C)C(F)(F)F)cn1)n2-c1nccs1 [compound 934, 6-[3-cyano-5-fluoro-6-methyl-1-(1,3-thiazol-2-yl)-1H-indol-2-yl]-N-[(2S)-1,1,1-trifluoropropan-2-yl]pyridine-3-sulfonamide] | 203 to 208 | < 500
Cc1ccc(-n2c(-c3ncc(S(=O)(=O)NC(C)C)cn3)c(C#N)c3cc(F)ccc32)cc1 [compound 357, 2-[3-cyano-5-fluoro-1-(4-methylphenyl)-1H-indol-2-yl]-N-(propan-2-yl)pyrimidine-5-sulfonamide] | 200 to 202 | < 500
COc1cc2c(cc1F)c(C#N)c(-c1ccc(S(=O)(=O)NC(C)C)cn1)n2C1CCC1 [compound 101, 6-(3-cyano-1-cyclobutyl-5-fluoro-6-methoxy-1H-indol-2-yl)-N-(propan-2-yl)pyridine-3-sulfonamide] | 234 to 237 | < 500
Cc1ccc2c(c1)c(C#N)c(-c1ccc(S(=O)(=O)N[C@H](C)C(F)(F)F)cn1)n2C1CCCCC1 [compound 487, 6-(3-cyano-1-cyclohexyl-5-methyl-1H-indol-2-yl)-N-[(2R)-1,1,1-trifluoropropan-2-yl]pyridine-3-sulfonamide] | 180 to 189 | < 500
CCc1cc2c(cc1F)c(C(N)=O)c(-c1ccc(S(=O)(=O)N[C@@H](C)C(F)(F)F)cn1)n2-c1cc(C)ccn1 [compound 980, 6-ethyl-5-fluoro-1-(4-methylpyridin-2-yl)-2-(5-{[(2S)-1,1,1-trifluoropropan-2-yl]sulfamoyl}pyridin-2-yl)-1H-indole-3-carboxamide] | 137 to 145 | 500 to 2000
N#Cc1c(-c2ncc(S(=O)(=O)NC(CF)CF)cn2)n(-c2ccccc2)c2cc(OC(F)F)ccc12 [compound 610, 2-[3-cyano-6-(difluoromethoxy)-1-phenyl-1H-indol-2-yl]-N-(1,3-difluoropropan-2-yl)pyrimidine-5-sulfonamide] | 206 to 208 | < 500
C[C@H](NS(=O)(=O)c1cnc(-c2c(C(N)=O)c3ccc(OC(F)F)cc3n2C2CCCCC2)nc1)C(F)(F)F [compound 746, 1-cyclohexyl-6-(difluoromethoxy)-2-(5-{[(2S)-1,1,1-trifluoropropan-2-yl]sulfamoyl}pyrimidin-2-yl)-1H-indole-3-carboxamide] | 217 to 219 | < 500
